Here are results for nine compounds from US5997843A, “Radiometal complexes that localise in hypoxic tissue” (priority 1993, dated 1999).

One series can be described thus: Biodistribution in rats. In kind it is in vivo, male rats. The settings on record: i.v. How it is done: Biodistribution in Rats--Methods
The quantitative biodistribution was studied in male rats at 2 minutes, 1 hour and 4 hours post-injection
Rats under light anaesthesia were injected intravenously with 0.1 ml of test agent. Three rats were sacrificed (anaesthesia followed by exsanguination) at 2, 60 and 240 minutes, post-injection. The percentage of the injected dose in the excreta and organs and tissues was determined by dissection and assay for radioactivity in an automatic gamma counter.

For series [1], the system named is isolated (Langendorff) rat hearts. As to the kind of experiment: Isolated perfused heart (Langendorff), hypoxic vs oxic uptake/retention. The settings on record: for Hypoxic/Oxic Ratio (H/O): ^99m Tc complex (or ^123 I-IAZA), 20 min infusion, 15 min washout; for Normalised Hypoxic Retention: relative to ^3 H-misonidazole activity. The protocol:
A 15-minute cold buffer washout period follows. y activity in the heart is monitored using a collimated NaI probe detector positioned over the heart.
Activity in hearts, relative to perfusate activity, is calculated for each nuclide and data evaluated for each compound for activity in hypoxic and oxic hearts (hypoxic:oxic ratio) and also relative to the 3 H-misonidazole activity (normalised retention) using Formula 1. [formula] Results

Where [2] appears, read: 2 min post-injection, ^99m Tc complex.
Where [3] appears, read: 240 min post-injection (third printed value).
[4] abbreviates: second of two values, 60 or 240 min not assignable.

In the series “Biodistribution in rats” (2 min post-injection), `CCC(=NO)C(C)(C)NCCCCNC(C)(C)C(CC)=NO` [Compound VIII, 5,10-diaza-4,4,11,11-tetramethyltetradecan-3,12-dione dioxime] gave a Bladder/Urine of 0.6 percent injected dose, a Blood of 9.0 percent injected dose, a Gut of 13.9 percent injected dose and a Kidney of 7.8 percent injected dose. Moreover, the Liver in the series “Biodistribution in rats” (2 min post-injection) came out at 13.6 percent injected dose. This compound returned a Muscle in “Biodistribution in rats” (setting [2]) of 29.7 percent injected dose. In the series “Biodistribution in rats” (60 min post-injection), this compound displayed a Gut of 36.2 percent injected dose and a Muscle of 7.4 percent injected dose. For the same compound, the Muscle in the series “Biodistribution in rats” (setting [3]) was determined as 2.4 percent injected dose. In addition, in the series “Biodistribution in rats” (240 min post-injection), the Gut is given as 46.7 percent injected dose. For the same compound, in the series “Biodistribution in rats” (setting [4]), the Blood is listed as 1.8 percent injected dose, the Kidney was 2.5 percent injected dose and the Liver amounted to 13.1 percent injected dose. For the same compound, in series [1], the “Hypoxic/Oxic Ratio (H/O)” value amounted to 34 and the “Normalised Hypoxic Retention” value is 2.2.
For the compound `CC(C)(C=NO)NCCCCNC(C)(C)C=NO` [Compound VI, 3,8-diaza-2,2,9,9-tetramethyldecan-1,10-dial dioxime], in the series “Biodistribution in rats” (2 min post-injection), the Bladder/Urine is listed as 0.6 percent injected dose, the Blood stood at 13.5 percent injected dose, the Gut stood at 8.6 percent injected dose and the Kidney is 12.5 percent injected dose. In addition, in the series “Biodistribution in rats” (2 min post-injection), the Liver amounted to 12.2 percent injected dose. The Muscle in “Biodistribution in rats” (setting [2]) is given as 24.8 percent injected dose. Also, in the series “Biodistribution in rats” (60 min post-injection), the Gut came out at 16.3 percent injected dose and the Muscle is 13.4 percent injected dose. In the series “Biodistribution in rats” (setting [3]), this compound showed a Muscle of 10.0 percent injected dose. In the series “Biodistribution in rats” (240 min post-injection), this compound gave a Gut of 21.2 percent injected dose. In the series “Biodistribution in rats” (setting [4]), this compound gave a Blood of 5.3 percent injected dose, a Kidney of 10.4 percent injected dose and a Liver of 13.7 percent injected dose. Further, in series [1], the “Hypoxic/Oxic Ratio (H/O)” value is reported as 3.2 and the “Normalised Hypoxic Retention” value was found to be 0.67.
Regarding `O=[N+]([O-])c1nccn1[C@H]1O[C@H](C[123I])[C@@H](O)[C@@H]1O` [^123 I-IAZA, ^123 I-iodoazomycin arabinoside, reference compound], in series [1], the “Hypoxic/Oxic Ratio (H/O)” value stood at 10 and the “Normalised Hypoxic Retention” value stood at 2.7.
In “Biodistribution in rats” (2 min post-injection), `CC(=NO)C(C)(C)NCCCCCNC(C)(C)C(C)=NO` [Compound III, 4,10-diaza-3,3,11,11-tetramethyltridecan-2,12-dione dioxime] came in with a Bladder/Urine of 0.2 percent injected dose, a Blood of 18.1 percent injected dose, a Gut of 8.2 percent injected dose and a Kidney of 11.3 percent injected dose. The same compound showed a Liver in “Biodistribution in rats” (2 min post-injection) of 9.7 percent injected dose. In the series “Biodistribution in rats” (setting [2]), this compound gave a Muscle of 26.9 percent injected dose. In the series “Biodistribution in rats” (60 min post-injection), this compound had a Gut of 25.0 percent injected dose and a Muscle of 10.1 percent injected dose. Further, the Muscle in “Biodistribution in rats” (setting [3]) amounted to 3.3 percent injected dose. In “Biodistribution in rats” (240 min post-injection), this compound came in with a Gut of 35.6 percent injected dose. In addition, in “Biodistribution in rats” (setting [4]), the Blood is 1.1 percent injected dose, the Kidney was 4.2 percent injected dose and the Liver was 5.4 percent injected dose.
With `COC(=O)C(CCCNC(C)(C)C(C)=NO)NC(C)(C)C(C)=NO` (centres unmarked) [Compound XVI, 4,9-diaza-3,3,10,10-tetramethyldodecan-2,11-dione dioxime-8-carboxylic acid methyl ester], in the series “Biodistribution in rats” (2 min post-injection), the Bladder/Urine was 0.3 percent injected dose, the Blood is reported as 17.8 percent injected dose, the Gut came out at 6.3 percent injected dose and the Kidney was 13.8 percent injected dose. The same compound yielded a Liver in “Biodistribution in rats” (2 min post-injection) of 4.4 percent injected dose. Also, the Muscle in the series “Biodistribution in rats” (setting [2]) came to 24.4 percent injected dose. In the series “Biodistribution in rats” (60 min post-injection), the Gut turned out to be 6.5 percent injected dose and the Muscle was 3.7 percent injected dose. Further, the Muscle in the series “Biodistribution in rats” (setting [3]) worked out at 2.3 percent injected dose. The Gut in “Biodistribution in rats” (240 min post-injection) came out at 12.4 percent injected dose. Besides, in the series “Biodistribution in rats” (setting [4]), the Blood worked out at 3.1 percent injected dose, the Kidney stood at 7.6 percent injected dose and the Liver came out at 2.5 percent injected dose. For the same compound, in series [1], the “Hypoxic/Oxic Ratio (H/O)” value is 4.0 and the “Normalised Hypoxic Retention” value is on record as 0.22.
On to `CCC(=NO)C(C)(C)NCCCCNC(C)(C)C(C)=NO` [Compound IX, 4,9-diaza-3,3,10,10-tetramethyltridecan-2,11-dione dioxime], for which, in “Biodistribution in rats” (2 min post-injection), the Bladder/Urine amounted to 0.8 percent injected dose, the Blood amounted to 10.1 percent injected dose, the Gut is recorded as 13.8 percent injected dose and the Kidney came out at 7.7 percent injected dose. Also, the Liver in the series “Biodistribution in rats” (2 min post-injection) is recorded as 12.9 percent injected dose. In “Biodistribution in rats” (setting [2]), this compound displayed a Muscle of 32.1 percent injected dose. In the series “Biodistribution in rats” (60 min post-injection), this compound came in with a Gut of 31.6 percent injected dose and a Muscle of 8.3 percent injected dose. For the same compound, the Muscle in the series “Biodistribution in rats” (setting [3]) was determined as 3.0 percent injected dose. For the same compound, the Gut in “Biodistribution in rats” (240 min post-injection) is on record as 37.7 percent injected dose. Also, in “Biodistribution in rats” (setting [4]), the Blood was 2.0 percent injected dose, the Kidney stood at 2.2 percent injected dose and the Liver came out at 11.2 percent injected dose. Besides, in series [1], the “Hypoxic/Oxic Ratio (H/O)” value was 8.4 and the “Normalised Hypoxic Retention” value turned out to be 2.1.
In the case of `CCC(=NO)C(C)(C)NCCCCNC(C)(C)C=NO` [Compound VII, 3,8-diaza-10-(hydroxyimino)-2,2,9,9-tetramethyl dodecanal oxime], in “Biodistribution in rats” (2 min post-injection), the Bladder/Urine is given as 0.8 percent injected dose, the Blood is reported as 11.8 percent injected dose, the Gut is reported as 12.1 percent injected dose and the Kidney was 9.8 percent injected dose. Besides, in “Biodistribution in rats” (2 min post-injection), the Liver worked out at 12.9 percent injected dose. The same compound gave a Muscle in “Biodistribution in rats” (setting [2]) of 25.6 percent injected dose. In the series “Biodistribution in rats” (60 min post-injection), this compound registered a Gut of 23.2 percent injected dose and a Muscle of 9.2 percent injected dose. This compound also displayed a Muscle in “Biodistribution in rats” (setting [3]) of 7.5 percent injected dose. In addition, in “Biodistribution in rats” (240 min post-injection), the Gut stood at 31.3 percent injected dose. In the series “Biodistribution in rats” (setting [4]), the Blood was 3.0 percent injected dose, the Kidney is on record as 3.4 percent injected dose and the Liver stood at 11.6 percent injected dose. In addition, in series [1], the “Hypoxic/Oxic Ratio (H/O)” value was 8.8 and the “Normalised Hypoxic Retention” value turned out to be 1.5.
As to `CC(C)(NCCCCNC(C)(C)C(Cn1ccnc1[N+](=O)[O-])=NO)C(Cn1ccnc1[N+](=O)[O-])=NO` [Compound XI, 1,12-bis(2-Nitro-1-imidazolyl)-4,9-diaza-3,3,10,10-tetramethyldodecan-2,11-dione dioxime], in “Biodistribution in rats” (2 min post-injection), the Bladder/Urine is on record as 0.2 percent injected dose, the Blood is reported as 10.8 percent injected dose, the Gut is reported as 18.2 percent injected dose and the Kidney was 8.6 percent injected dose. Besides, in the series “Biodistribution in rats” (2 min post-injection), the Liver is on record as 21.7 percent injected dose. In the series “Biodistribution in rats” (setting [2]), this compound gave a Muscle of 18.7 percent injected dose. Further, in “Biodistribution in rats” (60 min post-injection), the Gut was determined as 56.7 percent injected dose and the Muscle was determined as 5.6 percent injected dose. Also, the Muscle in the series “Biodistribution in rats” (setting [3]) worked out at 3.1 percent injected dose. For the same compound, the Gut in “Biodistribution in rats” (240 min post-injection) was 66.0 percent injected dose. For the same compound, in the series “Biodistribution in rats” (setting [4]), the Blood is 1.4 percent injected dose, the Kidney stood at 2.1 percent injected dose and the Liver turned out to be 7.3 percent injected dose. For the same compound, in series [1], the “hypoxia selectivity / hypoxic/oxic ratio / hypoxic retention (in words)” value is “further reduces the hypoxia selectivity”, the “Hypoxic/Oxic Ratio (H/O)” value amounted to 3.4 and the “Normalised Hypoxic Retention” value was 0.98.
In “Biodistribution in rats” (2 min post-injection), `CC(=NO)C(C)NCCCCNC(C)C(C)=NO` (centres unmarked) [Compound XIII, 4,9-Diaza-3,10-dimethyldodecan-2,11-dione dioxime] gave a Bladder/Urine of 1.1 percent injected dose, a Blood of 9.8 percent injected dose, a Gut of 11.4 percent injected dose and a Kidney of 8.8 percent injected dose. In addition, the Liver in “Biodistribution in rats” (2 min post-injection) was found to be 18.4 percent injected dose. Moreover, the Muscle in “Biodistribution in rats” (setting [2]) is recorded as 25.7 percent injected dose. For the same compound, in “Biodistribution in rats” (60 min post-injection), the Gut came out at 23.0 percent injected dose and the Muscle is 10.1 percent injected dose. For the same compound, in “Biodistribution in rats” (setting [3]), the Muscle stood at 7.1 percent injected dose. The compound further had a Gut in “Biodistribution in rats” (240 min post-injection) of 25.6 percent injected dose. In “Biodistribution in rats” (setting [4]), this compound yielded a Blood of 5.0 percent injected dose, a Kidney of 8.8 percent injected dose and a Liver of 20.4 percent injected dose.
